The test system of assay [1] is acetylated histones (AcH3K18), Jurkat cells. Nature of the assay: Immunoblot for acetylated histones in treated cells. Format: cell-based, human. To be noted: 24 hours, time- and dose-dependent.
Assay [2] concerns acetylated alpha-tubulin (AcTub), Jurkat cells. Nature of the assay: Immunoblot for acetylated alpha-tubulin in treated cells. The format is cell-based, human. To be noted: 24 hours, time- and dose-dependent.
In a further assay the test system is H976Y HDAC4. The following applies: mutant versus wild type; cited from earlier work.

Consider `O=C(/C=C/c1ccc(C(=O)N/N=C/c2ccc(O)c(O)c2O)cc1)NO` [pandacostat], for which, in assay [1], the “hyperacetylation of Class I deacetylase targets (bulk histones)” value is “confers hyperacetylation”. Further, the “hyperacetylation of HDAC6 target α-tubulin” value in assay [2] is “confers hyperacetylation”. Consider `O=C(/C=C/c1ccc(CN(CCO)CCc2c[nH]c3ccccc23)cc1)NO` [LAQ-824], for which the “increased affinity for H976Y HDAC4 gain of function mutant” value in the assay on H976Y HDAC4 is 100 fold.
